Laboratory results as given in US6818765B1, “Benzene-sulphonamide derivatives and their uses” (Universite de Liege, priority 1999, dated 2004).
Where two headings read alike, the source gives them in different places.

Key:
[1] = target: T1, thromboxane A2 receptors (TPα) of human platelets (Homo sapiens, UniProt P21731); assay: Binding test: displacement of [3H]SQ-29.548 from human platelet thromboxane A2 receptors; settings: for inhibition at 1 µM: read-out: Affinity: percent of [3H]SQ-29.548 specifically substituted by the examined compound, compound 10^-6 M; for inhibition at 0.1 µM: read-out: Affinity: percent of [3H]SQ-29.548 specifically substituted by the examined compound, compound 10^-7 M
T1 construct: endogenous in cells; host or cells: human platelets
T1 sequence (P21731 1-343): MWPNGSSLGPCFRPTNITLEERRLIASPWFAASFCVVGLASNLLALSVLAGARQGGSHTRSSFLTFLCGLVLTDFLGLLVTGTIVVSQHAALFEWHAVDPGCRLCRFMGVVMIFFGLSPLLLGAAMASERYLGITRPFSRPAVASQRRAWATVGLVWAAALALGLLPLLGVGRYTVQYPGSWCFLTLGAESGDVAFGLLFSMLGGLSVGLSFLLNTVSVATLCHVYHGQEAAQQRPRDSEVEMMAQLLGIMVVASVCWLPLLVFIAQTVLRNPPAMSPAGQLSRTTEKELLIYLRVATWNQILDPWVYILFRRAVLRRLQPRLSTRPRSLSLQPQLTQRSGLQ
From the text: To operate a first selection, the capacity of these compounds to displace in a specific way a tritium ligand, the [^3H]
Cozzi P., Giordani A., Menichincheri M., Pillan A., Pinciroli V., Rossi A., Tonani R., Volpi D., Tamburin M., Ferrario R., Fusar D., Salvati P.,—Agents combining thromboxane receptor antagonism with thromboxane synthase inhibition:[[[2-(1H-imidazol-1-yl)ethylidene]amino]oxy]alkanoic acids.—J. Med. Chem., 1994, 37, 3588-3604.

[2] = target: T2, TPτ thromboxan A2 receptors (Rattus norvegicus, UniProt P34978); assay: Rat aorta contraction test (relaxation of aorta precontracted by U-46619); settings: tonus induced by U-46619 (0.03 μM); read-out: IC 50: concentration reducing by 50% the Rat Aorta muscular tonus
T2 construct: Two tests on smooth musculature have allowed to confirm the antagonist potency on the TPτ thromboxan A2 receptors; from tissue; host or cells: isolated rat aorta; isolated rat stomach fundus
T2 sequence (P34978 1-341): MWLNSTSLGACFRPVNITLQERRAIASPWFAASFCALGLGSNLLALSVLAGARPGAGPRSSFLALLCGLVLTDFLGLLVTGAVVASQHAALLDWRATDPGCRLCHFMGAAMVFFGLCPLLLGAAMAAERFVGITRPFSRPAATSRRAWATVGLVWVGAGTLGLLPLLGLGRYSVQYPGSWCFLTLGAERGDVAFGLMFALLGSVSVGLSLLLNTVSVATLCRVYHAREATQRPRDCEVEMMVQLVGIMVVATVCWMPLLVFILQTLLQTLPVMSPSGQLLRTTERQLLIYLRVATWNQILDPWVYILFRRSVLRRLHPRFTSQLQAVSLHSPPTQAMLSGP
From the text: (§1) Two tests on smooth musculature have allowed to confirm the antagonist potency on the TPτ thromboxan A2 receptors. Indeed, the capacity of the selected compounds during the binding to prevent the contraction of the rat fundus induced by I′U-46619 and to relax the rat aorta precontracted by this same stable agonist of the TXA2 have been evaluated;
Test desribed according to:
de Tullio P., Pirotte B., Lebrun P., Fontaine J., Dupont L., Antoine M. H., Ouedraogo R., Khelili S., Maggetto C., Masereel B., Diouf O., Podona T., Delarge J., 3-and -4-substituted 4H-pyrido[4,3-e]-1,2,4-thiadiazine 1,1-dioxides as potassium channels openers: synthesis pharmacological evaluation, and structure-activity relationships.—J. Med. Chem., 1996, 39, 937-948.

[3] = test system: Human Platelets aggregation; assay: Human platelet aggregation test induced by arachidonic acid or U-46619; assay type: cell-based
From the text: The TXA2 antagonist potency of the selected compounds has been evaluated by a platelet aggregation test induced by the U-46619 (stable agonist of the thromboxan A2) or by the arachidonic acid.
Test described according to:
Born G.V.R., Cross M. J.,—The aggregation of blood platelets.—J. Physiol., 1963, 168, 178-195.
Tsuyoshi T., Masayuki Y., Shuichi W., Kazuhiro K., Takashi Y.,—Designe, synthesis, and pharmacology of 3-substituted sodium azulene—1 sulfonates and related compounds: Non-prostaboid thromboxane A2 receptor antagonists.—J. Med. Chem., 1993, 36, 791-800.

[4] = target: T2, TPτ thromboxan A2 receptors; assay: Test for preventing the rat fundus contraction induced by U-46619; settings: contraction caused by 5 μg of U-46619; read-out: IC 50: concentration reducing of 50% of maximum contraction amplitude of rat fundus
From the text: as §1
Test description according to:
Harris N., Greenberg R., Phillips M. B., Michel I. M., Goldenberg H. J., Haslanger M. F., Steinbacher T.E.,—Effects of SQ-27,427, a thromboxane A2 receptor antagonist, in the human platelet and isolated smooth muscle.—Eur. J. Pharmacol., 1984, 103, 9-18.

[5] = Platelet, aggregation induced by 30 nM of U-46619, read-out: IC 50 platelet aggregation, U-46.619
[6] = Platelet, aggregation induced by arachidonic acid, read-out: IC 50 platelet aggregation, ARACHIDONIC ACID

SMILES	IC50 [1] [µM]	inhibition at 1 µM [1] [%]	inhibition at 0.1 µM [1] [%]	IC50 [2] [µM]	Affinity: percent of [3H]SQ-29.548 specifically substituted by the examined compound, 10^-6M [1] [%]	Affinity: percent of [3H]SQ-29.548 specifically substituted by the examined compound, 10^-7M [1] [%]	IC50 ([3]; aggregation induced by 30 nM of U-46619, read-out: IC 50 platelet aggregation, U-46.619) [µM]	IC50 ([3]; aggregation induced by arachidonic acid, read-out: IC 50 platelet aggregation, ARACHIDONIC ACID) [µM]	IC50 [4] [µM]	IC50 [3, 5] [µM]	IC50 [3, 6] [µM]
CC(C)(C)NC(=O)NS(=O)(=O)c1cc([N+](=O)[O-])ccc1NC1CCCCCC1 [Compound 25]	0.0105	100	95.2	0.0197							
O=C(NC1CCCCC1)NS(=O)(=O)c1cc([N+](=O)[O-])ccc1NC1CCCCCC1 [Compound 22]	0.0417	100	84.1	0.0376							
O=[N+]([O-])c1ccc(NC2CCCCCC2)c(S(=O)(=O)NC(=S)NC2CCCCC2)c1 [Compound 40, N-[(2-cycloheptylamin-5-nitrobenzene)sulfonyl]N′-cyclohexyl thiourea]	0.0269	94.4	63	0.0177							
O=C(NC1CCCCC1)NS(=O)(=O)c1cc([N+](=O)[O-])ccc1NC1CCCCC1 [Compound 17]	0.0227	100	88	0.00138							
CC(C)(C)NC(=O)NS(=O)(=O)c1cc([N+](=O)[O-])ccc1NC1CCCCC1 [Compound 29, N-[(2-cyclohexylamin-5-nitrobenzene)sulfonyl]N′-tert-butyl urea]	0.0078	97.4	95.4	0.0206							
CC(C)NC(=O)NS(=O)(=O)c1cc([N+](=O)[O-])ccc1NC1CCCC1 [Compound 2]					67.7						
CC(C)NC(=O)NS(=O)(=O)c1cc([N+](=O)[O-])ccc1NC1CCCCC1 [Compound 13]					97.7	60.3					

Now from value to compound:

IC50 [1] [µM]	inhibition at 1 µM [1] [%]	inhibition at 0.1 µM [1] [%]	IC50 [2] [µM]	Affinity: percent of [3H]SQ-29.548 specifically substituted by the examined compound, 10^-6M [1] [%]	Affinity: percent of [3H]SQ-29.548 specifically substituted by the examined compound, 10^-7M [1] [%]	IC50 ([3]; aggregation induced by 30 nM of U-46619, read-out: IC 50 platelet aggregation, U-46.619) [µM]	IC50 ([3]; aggregation induced by arachidonic acid, read-out: IC 50 platelet aggregation, ARACHIDONIC ACID) [µM]	IC50 [4] [µM]	IC50 [3, 5] [µM]	IC50 [3, 6] [µM]	SMILES
			0.0318	100	72.0	0.034	0.035	0.18			O=C(O)CCC/C=C\CC1C2CCC(O2)C1CNNC(=O)Nc1ccccc1 (stereo not drawn) [SQ-29.548, acid [15-[1-alpha,2-beta (5Z),3-beta, 4-alpha]-7-[3-[[2-(phenylamino)carbonyl]hydrazin]methyl]-7-oxabicyclo[2.2.1]hept-2-yl]-5-heptenoic, reference compound]
	55.6	16.5	1.6					0.83	10.5	11.7	O=C(O)COc1ccc(CCNS(=O)(=O)c2ccccc2)cc1 [SULOTROBAN, sulotroban, reference compound]
0.0242	100	88.9	0.00121					0.07	0.48	0.36	Cc1cccc(Nc2ccc([N+](=O)[O-])cc2S(=O)(=O)NC(=NC#N)N2CCCCCC2)c1 [Compound 18, N-cyano-N′-[(2-metatoluylamin-5-nitrobenzene)sulfonyl]homopiperidinoamidine]
